From US7790731B2 (Banyu Pharmaceutical Co. Ltd., priority 2005, dated 2010)

Legend:
[1] = Thermal and light stability compared with the amorphous compound; type: physicochemical; conditions: as compared with amorphous compound
[2] = tested on: male SD rats; test: Intracerebral histamine release promotion test; type: in vivo; conditions: 30 mg/kg orally, Pargyline-treated male SD rats, 2 hours after administration
Protocol: A histamine 3 receptor antagonist or inverse-agonist is reported to promote histamine release at the nerve end presynaptic region in a brain. For the purpose of investigating the effect of the medicine of the invention on these, a test compound suspended in an aqueous 0.5% methyl cellulose solution was orally administered to male SD rats (7 to 10-week age, 200 to 300 g) treated with a monoamine oxidase inhibitor (Pargyline). 2 hours after the medicine administration, the rats were killed in euthanasia, and the brain tissue was rapidly taken out. According to a Miyamoto et al's method, the concentration of histamine and its main metabolite, tele-methylhistamine in the brain tissue was measured [see Analytical Biochemistry, Vol. 334, p. 89 (2004)].

Structure (SMILES): Cc1nc2cccc(C(F)(F)F)c2c(=O)n1-c1ccc(OCCCN2CCCC2)cc1 [form I crystal, 2-methyl-3-{4-[3-(1-pyrrolidinyl)propoxy]phenyl}-5-trifluoromethyl-4(3H)-quinazolinone]
- light stability [1]: excellent
- thermal stability [1]: excellent
- brain tele-methylhistamine level [2]: significantly increased
